This is an account of results in US20040097411A1, “Method of treating left ventricular dysfunction” (Allegheny-Singer Research Institute, priority 2002, published 2004).

Read-outs that look alike come from different tables or passages of the source.

For series [1] the following is noted: cited from earlier work; for plasma insulin levels: hyperglycemia (10.4 mmol/l, 187 mg/dl), GIP 2.0, GLP-1 1.5 pmol·kg−1·min−1; for insulinotropic action: normal subjects during euglycemia.
The test system of series [2] is rat cardiomyocytes. The note with it: in vitro; cited from earlier work.
Series [3] concerns conscious dogs with advanced DCM. The series is described as follows: Myocardial substrate uptake and metabolic parameters in dogs with advanced DCM (Table 1). Type of series: in vivo, dog. The note with it: for Glucose myocardial uptake / Lactate myocardial uptake / NE (transmyocardial norepinephrine uptake) / NEFA myocardial uptake / Insulin/Glucagon: GLP-1 group; for Insulin/Glucagon: insulin pmol/L to glucagon pg/ml. On the procedure: (§1) A 48 hour continuous intravenous infusion of GLP-1 (7-36 amide), (1.5 pmol/kg/min) in five normal dogs to determine the hemodynamic effect of chronic infusion in the absence of dilated cardiomyopathy was conducted. […] FIGS. 3-5 illustrates the effects of GLP-1 (7-36 amide) infusion (1.5 pmol/kg/min) intravenously for 48 hours in 20 conscious, chronically instrumented animals with advanced heart failure. These effects have been compared to similarly instrumented animals with advanced heart failure that received a control saline infusion of equal volume ([…]) illustrate the hemodynamic effects of chronic GLP-1 infusion in advanced DCM. GLP-1 (7-36 amide) infusion was associated with a restoration of left ventricular pressure, improvement in contractility, improvement in cardiac output, and reduction in heart rate and LVEDP. […] GLP-1 was associated with restoration of endothelial dependent vaso dilatation response to acetylcholine (FIG. 7). […] GLP-1 had […] increased plasma insulin levels in the setting of euglycemia.

For series [4], the system named is conscious, chronically instrumented dogs. Nature of the series: Acute graded infusion, hemodynamic effects in conscious chronically instrumented dogs (normal and advanced dilated cardiomyopathy). The series is classed as in vivo, dog. The source says: FIGS. 2a-2d show the dose response to rGLP-1 in normal conscious dogs and conscious dogs with advanced DCM compared to the response to the sympathomimetic, dobutamine.
FIG. 1 illustrates characteristic instrumentation of conscious, chronically instrumented dogs studied in the laboratory. Under sterile surgical technique, the animals are instrumented as indicated and allowed to recover fully from their surgery. At the time, they are taught to lie quietly on the experimental table before study. To determine if acute GLP-1 (7-36 amide) infusion is associated with hemodynamic effects in conscious chronically instrumented dogs, graded infusions for ten minutes at doses of 1.25, 2.5, 5, 10 and 20 pmol/kg/min in six normal dogs and in six dogs with advanced dilated cardiomyopathy were studied. The response of the graded infusion to the classic iontopic agent, Dobutamine, (2.5, 5, 7.5, 10 and 15μ/kg/min.) was compared. […] Nikolaidis, L A, Hentosz, T, Doverspike, A, et al., “Catecholamine stimulation is associated with impaired myocardial O2 utilization in heart failure,” Cardiovas. Res., 2002;53:392-404, incorporated by reference herein.

The subject of series [5] is normal dogs. The series is described as follows: 48 hour continuous intravenous infusion in normal dogs, hemodynamic effect. Type of series: in vivo, dog. The note with it: 1.5 pmol/kg/min i.v. 48 hour. On the procedure: as §1
Series [6] has as its system adults presenting with severe acute myocardial infarction. Nature of the series: 72 hour continuous intravenous infusion in adults with severe acute myocardial infarction. Type of series: in vivo, human. On the procedure: The effects of continuous intravenous infusion of GLP-1 (1.5 pmol/kg/min) intravenously for 72 hours was studied in ten adults presenting with severe acute myocardial infarction. These were compared to eleven adults with similar large myocardial infarction (LVEF<35%) all of whom underwent percutaneous coronary intervention and subsequently were treated for 72 hours thereafter.

The subject of series [7] is conscious dogs with advanced DCM. The series is described as follows: 48 hour intravenous infusion in conscious dogs with advanced heart failure (DCM): hemodynamics, sympathetic activity, coronary vasodilation. Type of series: in vivo, dog.
Source text: FIGS. 3a-3d show the effects of r GLP-1 on LV systolic pressure, LV end diastolic pressure, LV dP/dt, and heart rate in conscious dogs with advanced DCM compared to saline control.
FIGS. 4a-4d show the effects of rGLP-1 on cardiac output, stroke volume, LV ejection fraction, systemic vascular resistance in conscious dogs with advanced DCM compared to saline control.
FIGS. 5a and 5b show the effects of rGLP-1 on stroke work and LV external efficiency in conscious dogs with advanced DCM compared to saline control.
FIGS. 6a and 6b show the effects of rGLP-1 on transmyocardial norepinephrine uptake as a reflection of sympathetic drive to the myocardium in conscious dogs with advanced DCM compared to saline controls.
FIGS. 7a and 7b show the effects of rGLP-1 on endothelial dependent coronary vasodilation in conscious dogs. Advanced DCM was associated with impaired coronary flow responses to acetylcholine. These responses were restored following 48-hour infusion of rGLP-1. The response to the non-endothelial dependent vasodilator, nitroglycerine was unaffected.
as §1

For series [8] the following is noted: when GIP is administered; cited from earlier work.
Series [9] concerns restrained rats. The note with it: rat, in vivo, sc; cited from earlier work.
The mark [10] stands for this setting: hyperglycemia-only control ~280.
The mark [11] stands for this setting: Baseline (before CHF and infusion).
The mark [12] stands for this setting: advanced DCM, vs saline controls.
The mark [13] stands for this setting: graded infusions for ten minutes, 1.25-20 pmol/kg/min, normal dogs and dogs with advanced dilated cardiomyopathy.
The mark [14] stands for this setting: 1.5 pmol/kg/min i.v. 48 hours, advanced heart failure, vs saline.
Setting [15] is: 48-hour infusion, advanced DCM, FIG. 7.

For GLP-1 (7-36 amide), in series [1] (hyperglycemia-only control 47), the plasma insulin levels is given as around 333 μU/ml. The plasma insulin levels in series [1] (setting [10]) is around 2000 pmol/L. Moreover, in series [1] (insulinotropic action during hyperglycemia), the incretin potency comparison entry is “more potent than GIP”. In addition, the insulinotropic action result in series [1] is reported as “insulinotropic”. Moreover, in series [2], the cAMP result is listed as “increases” and the myocyte contractility entry is “no effect”. In series [3] (24 hrs of infusion), the Glucose myocardial uptake came out at 8.72 ± 1.05 µmol/min, the Lactate myocardial uptake worked out at 3.61 ± 0.62 µmol/min, the “NE (transmyocardial norepinephrine uptake)” value is listed as 26.3 ± 3.1 pmol/min and the NEFA myocardial uptake is 4.53 ± 0.58 µmol/min. In series [3] (48 hrs of infusion), the Glucose myocardial uptake is 7.00 ± 0.94 µmol/min, the Lactate myocardial uptake was 4.04 ± 0.74 µmol/min, the “NE (transmyocardial norepinephrine uptake)” value is 30.5 ± 4.9 pmol/min and the NEFA myocardial uptake worked out at 5.16 ± 0.73 µmol/min. In [3] (48 hrs of infusion), this compound registered an Insulin/Glucagon of 3.12 ± 0.24. Besides, in series [3] (setting [11]), the Glucose myocardial uptake was 6.67 ± 1.22 µmol/min, the Lactate myocardial uptake was found to be 4.78 ± 1.04 µmol/min, the “NE (transmyocardial norepinephrine uptake)” value is on record as 30.9 ± 4.8 pmol/min and the NEFA myocardial uptake worked out at 5.23 ± 0.83 µmol/min. This compound returned an Insulin/Glucagon in series [3] (Baseline) of 1.36 ± 0.21. Further, in series [3] (CHF (before infusion)), the Glucose myocardial uptake is 3.44 ± 0.81 µmol/min, the Lactate myocardial uptake came to 2.64 ± 0.91 µmol/min, the “NE (transmyocardial norepinephrine uptake)” value came out at 18.7 ± 3.6 pmol/min and the NEFA myocardial uptake turned out to be 3.17 ± 0.61 µmol/min. The same compound gave an Insulin/Glucagon in series [3] (CHF (before infusion)) of 1.79 ± 0.29. In addition, in series [3] (advanced DCM), the plasma glucagon levels entry is “effective in reducing”. For the same compound, in [3] (setting [12]), the myocardial glucose uptake result is “enhanced” and the “ratio of insulin (pmol/L) to glucagon (pg/ml)” value is “significant increase”. In series [3] (setting of euglycemia), the plasma insulin levels entry is listed as “little effect”. Also, in series [4] (setting [13]), the cardiac output entry is reported as “no significant, dose related effects”; the heart rate result is “no significant, dose related effects”; the “left ventricular dP/dt” value is recorded as “no significant, dose related effects”; the left ventricular pressure entry was “no significant, dose related effects”. Also, in series [4] (normal conscious dogs and conscious dogs with advanced DCM, FIGS. 2a-2d), the “acute hemodynamic effects (dose response)” value is given as “no acute hemodynamic effects”. In addition, in [5], the “hemodynamic effects of chronic infusion” value is recorded as “no significant hemodynamic effects”. Moreover, the left ventricular hemodynamics result in [6] (1.5 pmol/kg/min i.v. 72 hours after PCI, vs standard care, FIG. 8) is “overall improvement”. The left ventricular function result in series [6] (patients with large myocardial infarctions, 1.5 pmol/kg/min i.v. 72 hours) is recorded as “improvement”. In series [7] (setting [14]), the LVEDP result is listed as “reduction”, the cardiac output result is recorded as “improvement”, the contractility result is on record as “improvement” and the heart rate entry is “reduction”. For the same compound, the left ventricular pressure entry in [7] (setting [14]) was “restoration”. In [7] (setting [15]), the “endothelial dependent vasodilatation (coronary flow) response to acetylcholine” value was “restoration” and the “response to the non-endothelial dependent vasodilator nitroglycerine” value is on record as “unaffected”. For the same compound, the “endothelial dependent vasodilatation (coronary flow) response to acetylcholine” value in series [7] (48-hour infusion, advanced DCM, FIG. 7, listed as rGLP-1) is “restored”. For the same compound, in [7] (infusion compared to saline, FIG. 6), the myocardial sympathetic activity result is recorded as “suppression”.
For `CC(CCc1ccc(O)cc1)NCCc1ccc(O)c(O)c1` (stereo not drawn) [Dobutamine, reference compound], the “hemodynamic effects of graded infusion” value in [4] (dogs in heart failure) is “de-sensitized effects”; in [4] (normal dogs), “predictable effects”.
As for “glucose-dependent insulinotropic polypeptide [GIP]”, in series [8], the “increase of B-cell sensitivity to second-generation sulfonylurea” value was 2 fold. The plasma insulin levels is around 150 μU/ml in series [1] (hyperglycemia-only control 47) and around 900 pmol/L in [1] (setting [10]). In addition, the insulinotropic action result in series [1] is given as “not”.
As for exendin-4 [excendin 4], in series [9], the blood pressure entry is on record as “hypertension” and the heart rate entry is “tachycardia”.
